# Reference: patent US20240306682A1, “Process for providing a combination of fermented seaweed and/or algae and plant material selected from the family Fabaceae” (FERMENTATIONEXPERTS A/S, priority 2020, published 2024)
# System: salmons
# Test: Fish feeding experiment, fillet colour by SalmoFan color measurement scale
# Type: in vivo
# Details: salmon fillets, supplement in basic fish feed (50 mg astaxanthin/kg or 15% (w/w) fermented composition), fed for 8 weeks
# Experimental: The colour intensity of a salmonoid fillets according to the present invention may be determined by the SalmoFan™ color measurement scale. The SalmoFan™ color measurement scale has been developed by DSM and may be determined physically, using visual inspection applying a colour scale, or by digitally determination, using a colour sensor to determine the colour intensity. Fish feeding experiment using the following feed are performed: • (1) A basic fish feed comprising 50 mg chemically produced astaxanthin/kg basic fish feed; • (2) A basic fish feed comprising 15% (w/w) of a fermented composition comprising 99% fermented rapeseed meal and 1% fermented seaweed; and • (3) A basic fish feed comprising 15% (w/w) of a fermented composition as provided in Example 1, comprising 93% fermented soymeal, 6% fermented rapeseed meal and 1% fermented seaweed. 3 ponds with each 10 salmons of about 3 kg per salmon was fed with the above-mentioned basic fish feed, including supplement (1), (2) or (3), in the stated concentrations, for a period of 8 weeks. After the […] weeks the salmons were harvested, gutted and filleted and the colour of the fillets was determined by the SalmoFan™ color measurement scale.
smiles,measurement,value
"CC1=C(/C=C/C(C)=C/C=C/C(C)=C/C=C/C=C(C)/C=C/C=C(C)/C=C/C2=C(C)C(=O)[C@@H](O)CC2(C)C)C(C)(C)C[C@H](O)C1=O [supplement 1, astaxanthin]",Colour intensity,23-23
